From patent US12082584B2, “BOC-butenolide, an antifouling compound that has potent ability to inhibit the settlement of marine invertebrate larvae” (The Hong Kong University of Science and Technology, priority 2021, dated 2024)

How the values were obtained:
[1] = test system: Balanus amphitrite; assay: Anti-larval settlement bioassay of barnacle cyprids (settlement and toxic effects); format: in vivo; settings: for settlement rate: cyprids
Description: Adult A. amphitrite colonies were collected from Tso Wo Hang Pier (22°23′32.1″N 114°17′18.7″E), Hong Kong, from April to June 2018. The adults were kept in a water tank with running seawater at the Coastal Marine Laboratory (the Hong Kong University of Science and Technology) for no more than a week before experimental use. Adults were induced under light sources for 1 h to hatch and the larvae were obtained using the method described previously by Harder et al. (2001), which is hereby incorporated by reference in its entirety. The nauplii larvae newly released from the adults were reared on diatom Chaetoceros gracilis Schütt. The seawater culture medium was replaced with fresh FSW and algae every day, and the nauplii reached the competent stage, known as cyprid, after 4 d of incubation at around 28° C.
The test compounds were dissolved with a small amount of DMSO. The test compounds were used in six concentrations from 100 ppm to 3.125 ppm with 2-fold serial dilution. The same amount of DMSO was used as the negative control for all testing concentrations. Approximately 20±2 individual A. amphitrite cyprids were placed into each well of the 24-well polystyrene culture plate containing 2 mL of FSW and were subjected to different treatments. For all treatments and controls, three replicates were performed. The plates were then incubated at 25° C. in darkness. After 48 h, the number of settled and swimming larvae were counted using Leica MZ6 microscope, and possible toxic effects were also noted.

[2] = test system: Hydroides elegans; assay: Anti-larval settlement bioassay of H. elegans larvae (settlement and toxic effects); format: in vivo
Description: Adult H. elegans colonies were collected from a fish farm at Yung Shue O, Hong Kong (22°24′N, 114°21′E) from March to April 2019. The adults were kept in a water tank with running seawater at the Coastal Marine Laboratory (the Hong Kong University of Science and Technology) for no more than 3 days before experimental use. The larvae were collected according to the methods described by Qian and Pechenik (1998). The tube of the adults was gently cracked with forceps to release the gametes. Oocytes were then mixed with the sperm and transferred to a new container with 500 mL FSW for fertilization. Larvae were reared on microalga Isochrysis galbana (Tahitian strain) after hatching. The seawater culture medium was replaced with fresh FSW and algae every day, and the trochophore-stage larvae reached the competent stage after 5 d of incubation at around 25° C.
The test compounds were dissolved with a small amount of DMSO. The test compounds were used at six different concentrations with a 2-fold serial dilution from 100 ppm to 3.125 ppm. The same amount of DMSO was used as the negative control for all testing concentrations. Approximately 10±2 individuals of H. elegans larvae were put into each well of a 24-well polystyrene culture plate that contained 2 mL of FSW with different concentrations of test solution. Approximately 10^−4 molarity of 3-isobutyl-1-methylxanthine was added into each well as an inducer to induce the settlement of H. elegans larvae (Xu et al., 2010). The plates were then incubated at 25° C. in darkness. After 24 h, the number of settled and swimming larvae were counted using Leica MZ6 microscope, and possible toxic effects were also noted.

[3] = Antifoulant release rate from PCL-PU coatings in artificial seawater (HPLC); format: physicochemical
Description: (§1) The polymer/antifoulant coatings in subject invention were prepared using the solution casting method described by Ding et al. 2018. The coating was prepared by dissolving poly(ε-caprolactone) based polyurethane (PCL-PU) and BOC-butenolide, in different proportions (i.e. 95 wt % polymer and 5 wt % antifoulant for 5% antifoulant coating), in xylene with vigorous stirring until all solids have dissolved to form a uniform solution. The solution was applied onto the surface of the panels, either epoxy panel (25 mm×75 mm) for release rate determination or PVC panels (53 mm×125 mm) for field test, and the panels were then placed under room temperature for all solvent to evaporate and form a continuous coating.
The release rate of BOC-butenolide was determined by HPLC for quantification. The polymer/antifoulant coatings were prepared on an epoxy panel (25 mm×75 mm). The coated panels were then put into ASW. At certain time points (day 1, 8, 15, 22, 29, 50, 71, 92 after immersion onto ASW), the panels were transferred to individual containers with 100 mL of fresh ASW. […]

[4] = test system: fouling organisms; assay: Field test of coated PVC panels immersed in seawater; format: in vivo; settings: PCL-PU coating
Description: as §1
The field tests were conducted at a fish farm in Yung Shue O, Hong Kong (114°21′E, 22°24′N) from January to March 2018. PVC panels (53 mm×125 mm) covered with coatings were immersed in seawater at a depth of 1 m from surface. The panels were retrieved once every month to be washed gently with seawater to remove dirt and photographed before being placed back in the sea. The antifouling potential of different panels was compared to determine the efficiency of the coatings. […] The percentage of area covered by foulers was calculated from the ratio of total fouling area to the panel area in which the area was highlighted by threshold function in ImageJ. […]

[5] = Stability of BOC-butenolide; format: physicochemical; settings: compared to butenolide
Description: The stability of BOC-butenolide was measured by the concentration changes of BOC-butenolide in ASW throughout 3 months. The starting nominal concentration of BOC-butenolide was 200 ppm. At every time point, 5 mL of the solution was drawn and mixed with 10 mL dichloromethane (DCM). The DCM fraction with the analyte was dried under nitrogen gas, redissolved reconcentrated in 1 mL of methanol and subjected to above HPLC analysis.

**Q.** What does the source list for `CC(C)(C)OC(=O)NCCCCCC1C=CC(=O)O1` (stereo not shown) [BOC-butenolide, Tert-butyl (5-(5-oxo-2,5-dihydrofuran-2yl)pentyl)carbamate]?
**A.** settlement rate ([1]; 3.125 ppm, 48 h): around 70%; toxicity (larval death rate) ([1]; 25 ppm and below): did not show any toxicity; settlement rate ([1]; 25 ppm, 48 h): around 3%; attachment of barnacle cyprids ([1]; 50 to 100 ppm, 48 h): inhibits the attachment; settlement rate ([2]; 3.125 ppm, 24 h): up to 80%; toxicity (larval death rate) ([2]; 25 ppm and below): did not show any toxicity; settlement rate ([2]; 25 ppm, 24 h, significant difference with control): around 20%; larval settlement ([2]; 50 and 100 ppm, 24 h): no larval settlement; death ([2]; 50 ppm): around 10%; initial release rate ([3]; 10 wt % samples in PCL-PU coating): 150 μg cm^−2 day^−1; time the coating can still release BOC-butenolide ([3]; PCL-PU coating): at least 2 months; AF ability to resist the attachment of the fouling organisms [4]: relatively good AF ability; stability [5]: increased
